Reference: patent US20210369661A1, “METHODS AND COMPOSITIONS FOR TREATING AND RECOVERING FROM VIRAL INFECTIONS” (IMMUNOFLEX THERAPEUTICS INC., priority 2020, published 2021)
Several values for one entry are separate records, joined by “and”; a condition that tells them apart may be missing. Equal values may be shown once. Entries after “also recorded” stand apart in the source; their conditions may differ.

Experiments:
[1] = biological target: T1, fatty acid amide hydrolase (FAAH) (Rattus norvegicus, UniProt P97612); details: rat brain homogenates; read-out: IC50, inhibition of anandamide hydrolysis; cited from earlier work
T1 construct: from tissue; host or cells: rat brain homogenates
T1 sequence (P97612 1-579): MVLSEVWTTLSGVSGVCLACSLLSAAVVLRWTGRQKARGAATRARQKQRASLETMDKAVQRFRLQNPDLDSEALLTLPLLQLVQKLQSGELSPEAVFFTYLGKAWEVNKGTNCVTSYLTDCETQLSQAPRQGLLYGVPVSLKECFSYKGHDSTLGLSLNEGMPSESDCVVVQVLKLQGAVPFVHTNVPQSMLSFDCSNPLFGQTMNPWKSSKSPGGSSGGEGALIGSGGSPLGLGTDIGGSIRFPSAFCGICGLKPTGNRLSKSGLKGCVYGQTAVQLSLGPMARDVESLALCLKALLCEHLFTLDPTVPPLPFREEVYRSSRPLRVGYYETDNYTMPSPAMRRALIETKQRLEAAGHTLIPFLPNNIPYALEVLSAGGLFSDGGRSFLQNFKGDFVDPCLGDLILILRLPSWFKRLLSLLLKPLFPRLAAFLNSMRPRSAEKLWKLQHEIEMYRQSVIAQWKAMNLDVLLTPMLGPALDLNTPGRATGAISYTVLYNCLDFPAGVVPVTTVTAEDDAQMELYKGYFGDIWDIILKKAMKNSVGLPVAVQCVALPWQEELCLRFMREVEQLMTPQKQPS

HCV infected cells = details: in vitro; cited from earlier work
[2] = cited from earlier work
CB1 and CB2 = details: cited from earlier work; for Agonism or antagonism against CB1 and CB2: up to 20 μM
GPR55 = GPR55 (Homo sapiens, UniProt Q9Y2T6); details: cited from earlier work
human PBMCs = details: NAC 1 mM, in vitro; cited from earlier work
HIV [3] = details: cited from earlier work
[4] = test system: influenza A (H5N1) viruses; details: lung epithelial cells; cited from earlier work
[5] = test system: A/H1N1 Singapore 6/86 influenza virus; details: cited from earlier work
HIV [6] = details: 293.27.2, H9, MOLT-4 cells, PBMCs; with or without TNFα / PMA stimulation; cited from earlier work
[7] = test system: A/swine/HeBei/012/2008 (H9N2) viruses; details: intra-nasal inoculation with or without NAC; cited from earlier work
[8] = test system: TCR β chain immune repertoire; assay: T cell receptor β chain immune repertoire diversity index after a controlled dose (iRepertoire sequencing of blood); format: in vivo, human; details: for Total number of clonotypes: within 24-48 hr of applied dose
[9] = Intoxication after topical application of THC salve; details: 10 mg THC, application for three days
[10] = biological target: monoacylglycerol lipase (MAGL); details: reversible mechanism; read-out: IC50, inhibition of MAGL; cited from earlier work
CB1 receptor = CB1 receptor (Homo sapiens, UniProt P21554); details: read-out: I value at the CB1 receptor; cited from earlier work
[11] = test system: influenza virus strain A/PR8(H1N1); details: lethal influenza infection in mice; cited from earlier work
influenza virus = details: combination with ribavirin vs ribavirin alone; cited from earlier work
CB2 receptor = CB2 receptor (Homo sapiens, UniProt P34972); details: nM concentrations; cited from earlier work
CB2 receptor, sequence (P34972 whole entry): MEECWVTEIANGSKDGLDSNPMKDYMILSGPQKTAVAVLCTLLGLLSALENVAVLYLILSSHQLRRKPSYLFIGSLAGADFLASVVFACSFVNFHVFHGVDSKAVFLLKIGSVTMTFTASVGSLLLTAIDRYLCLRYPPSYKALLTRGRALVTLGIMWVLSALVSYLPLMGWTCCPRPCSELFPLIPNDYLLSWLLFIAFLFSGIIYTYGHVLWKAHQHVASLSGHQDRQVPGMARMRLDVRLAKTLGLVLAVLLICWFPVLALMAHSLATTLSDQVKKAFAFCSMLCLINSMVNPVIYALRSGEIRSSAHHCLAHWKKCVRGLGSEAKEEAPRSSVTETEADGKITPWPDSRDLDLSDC

GPR55, sequence (Q9Y2T6 whole entry, species assumed): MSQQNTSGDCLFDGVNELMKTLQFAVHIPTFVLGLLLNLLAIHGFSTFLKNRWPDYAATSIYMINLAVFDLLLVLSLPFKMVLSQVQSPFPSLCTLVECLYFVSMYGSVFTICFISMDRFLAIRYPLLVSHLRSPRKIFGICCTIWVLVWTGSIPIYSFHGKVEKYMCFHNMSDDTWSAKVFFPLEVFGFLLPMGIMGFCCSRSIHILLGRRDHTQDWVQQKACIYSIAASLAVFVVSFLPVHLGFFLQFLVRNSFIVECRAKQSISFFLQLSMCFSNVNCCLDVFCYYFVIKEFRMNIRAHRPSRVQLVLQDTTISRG
CB1 receptor, sequence (P21554 whole entry): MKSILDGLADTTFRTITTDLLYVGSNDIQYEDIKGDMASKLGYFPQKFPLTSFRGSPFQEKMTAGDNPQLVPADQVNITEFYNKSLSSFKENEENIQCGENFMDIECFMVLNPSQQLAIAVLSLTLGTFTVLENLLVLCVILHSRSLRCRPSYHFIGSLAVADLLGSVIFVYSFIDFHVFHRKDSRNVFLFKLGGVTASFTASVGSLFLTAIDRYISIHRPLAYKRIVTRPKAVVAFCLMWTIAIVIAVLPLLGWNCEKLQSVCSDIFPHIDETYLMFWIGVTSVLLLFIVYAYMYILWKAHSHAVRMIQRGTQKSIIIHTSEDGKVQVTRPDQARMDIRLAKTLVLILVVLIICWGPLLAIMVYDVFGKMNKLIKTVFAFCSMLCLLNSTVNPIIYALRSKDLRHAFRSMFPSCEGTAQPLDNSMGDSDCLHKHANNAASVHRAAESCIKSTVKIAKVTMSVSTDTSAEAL

In the case of O=c1cc(-c2ccccc2)oc2cc(O)ccc12 [7-hydroxyflavone], the IC50 [1] is listed as under 1000 nM.
For C=C(C)[C@@H]1CCC(C)=C[C@H]1c1c(O)cc(CCCCC)cc1O [CBD, cannabidiol], the “Cell death of HCV infected cells” value (HCV infected cells) is given as “approximately 85%”.
For CCCCCc1cc(O)c2c(c1)OC(C)(C)[C@@H]1CCC(C)=C[C@@H]21 [Dronabinol], the “Amount reaching the blood stream by absorption through the digestive system” value ([2]; oral) is listed as 10-20 % of the administered dose and the “Duration of peak therapeutic effect” value ([2]; post administration) is listed as 2 to 4 h.
For Cc1cccc(N2CCN(C(=O)c3cc(S(=O)(=O)N(C)C)ccc3N3CCCC3)CC2)c1C [ML184], the “Selectivity against CB1 and CB2” value (CB1 and CB2) is listed as 57 fold and the “Potency for GPR55” value (GPR55) is listed as 263 nM.
In the case of COc1ccc(-c2csc(NC(=O)CSc3nnc4c(C)cc5ccccc5n34)n2)cc1 [ML185], the “Selectivity against CB1 and CB2” value (CB1 and CB2) is listed as “greater than 48 fold” and the “Potency for GPR55” value (GPR55) is listed as 658 nM.
For COc1ccc(S(=O)(=O)N2CCOCC2)cc1NC(=O)c1cc2c(s1)CCCC2 [ML186], the “Selectivity against CB1 and CB2” value (CB1 and CB2) is given as “greater than 100 fold” and the “Potency for GPR55” value (GPR55) is given as 305 nM.
For Cc1ccc(C2(C(=O)N3CCC(n4nc(-c5ccccc5)oc4=O)CC3)CC2)cc1 [ML191], the “Agonism or antagonism against CB1 and CB2” value (from here on “Agonism or antagonism”) (CB1 and CB2) is given as “no observed agonism or antagonism”.
For Cc1nc(N2CCN(C(=O)c3ccco3)CC2)c2c3c(sc2n1)CCCC3 [ML192], the “Agonism or antagonism” value (CB1 and CB2) is given as “no observed agonism or antagonism”.
In the case of Cc1cc(C)c2nc(-c3ccccn3)cc(C(=O)Nc3ccc(S(=O)(=O)Nc4onc(C)c4C)cc3)c2c1 [ML193], the “Agonism or antagonism” value (CB1 and CB2) is given as “no observed agonism or antagonism”.
For CC(=O)N[C@@H](CS)C(=O)O [NAC, N-acetylcysteine], the “Influenza virus specific T lymphocyte proliferation and IFNγ production” value (human PBMCs) is given as “increase”, the “Survival, risk ratio” value (HIV [3]; 73 subjects with survival data, P=0.0003, median NAC dose 5.3 g/day, median 24 weeks) is given as 0.3 (0.1-0.6) and the Viral load (HIV [3]; NAC treatment during the trial, P>0.1) is given as “did not result in a significant change”. The “CD4 T cell count” value (HIV [3]; NAC treatment during the trial, P>0.9) was “did not result in a significant change”, the “Whole blood GSH and T cell GSH” value (HIV [3]; NAC treatment for 8 weeks) was “replenished” and the “Production of pro-inflammatory molecules” value [4] was “inhibit”. For the same compound, the Tolerability ([5]; NAC 600 mg twice daily for 6 months) was “well tolerated”, the “Virus-infected subjects who developed a symptomatic form” value ([5]; NAC effervescent tablets 600 mg twice daily for 6 months, 79% in the placebo group) was 25% and the HIV replication (HIV [6]) was “inhibit HIV replication; also recorded: blocked stimulation of HIV replication”. For the same compound, the “Pulmonary inflammation, edema, myeloperoxidase, cells and cytokines in BAL fluid” value [7] was “reduced”, the “Diversity index, Dosed” value ([8]; NAC single 1200 mg dose (2×600 mg effervescent tablets), 24 hours post dose) was 20.0 and 15.9 and the “Diversity index, Fold change” value ([8]; NAC single 1200 mg dose, 24 hours vs baseline) was 1.6 fold and 1.5 fold. The “Time until immune diversity returns to baseline” value ([8]; after a single dose) was 24 h and the “Total number of clonotypes” value [8] was “increases”.
In the case of CCCCCc1cc(O)c2c(c1)OC(C)(C)[C@@H]1CCC(C)=C[C@@H]21 [THC, Δ^9-tetrahydrocannabinol], the “Intoxication characteristic of THC” value [9] is reported as “without intoxication” and the “Total number of clonotypes” value [8] is reported as “rapidly increases”.
In the case of CC(C)=CCC[C@@H](C)[C@@H]1CC[C@]2(C)C3=C(CC[C@@]12C)[C@@]1(C)CC[C@H](O)C(C)(C)[C@@H]1CC3 [euphol], the IC50 [10] is given as 315 nM.
In the case of C=C[C@H](O)C#CC#CC/C=C\CCCCCCC [falcarinol], the Ki (CB1 receptor) is given as under 1000 nM.
In the case of CCOC(=O)C1=C[C@@H](OC(CC)CC)[C@H](NC(C)=O)[C@@H](N)C1 [oseltamivir], the Survival rate [11] is listed as 60%.
In the case of NC(=O)c1ncn([C@@H]2O[C@H](CO)[C@@H](O)[C@H]2O)n1 [ribavirin], the Survival rate (influenza virus) is given as 58%.
For C=C1CC/C=C(\C)CC[C@@H]2[C@@H]1CC2(C)C [β-caryophyllene], the “Functional activity at the CB2 receptor” value (CB2 receptor) is listed as “full agonist”.
